According to ChEMBL document CHEMBL3745649, “Structure-activity relationship study of anticancer thymidine-quinoxaline conjugates under the low radiance of long wavelength ultraviolet light for photodynamic therapy” (Eur J Med Chem, 2016):
Calls of active or inactive are those of the source. The calls are words filed in the database; no cut-off is given here.

How the values were obtained:
HepG2 = assay: Cytotoxicity against human HepG2 cells assessed as cell viability after 72 hrs by MTT assay; assay type: functional, cell-based; conditions: HepG2, 72 h
[1] = Photocytotoxicity against human PANC1 cells assessed as cell viability preincubated for 5 hrs followed by UVA-1 irradiation at 0.85 mW/cm'2 for 20 mins measured after 48 hrs by CCK8 assay; assay type: functional, cell-based; conditions: PANC-1, light or radiation study
[2] = Cytotoxicity against human Hep3B cells assessed as cell viability after 72 hrs by MTT assay; assay type: functional, cell-based, Hep 3B2
PANC-1 [3] = assay: Photocytotoxicity against human PANC1 cells assessed as production of reactive oxygen stress at 5 uM preincubated for 5 hrs followed by UVA-1 irradiation at 0.85 mW/cm'2 for 20 mins measured for 10 mins by DCFH-DA based fluorescence microscopic analysis; assay type: functional, cell-based
C6 = assay: Cytotoxicity against rat C6 cells assessed as cell viability after 72 hrs by MTT assay; assay type: functional, cell-based; conditions: C6, 72 h
H22 = assay: Cytotoxicity against […] cells assessed as cell viability after 72 hrs by MTT assay; assay type: functional, cell-based; conditions: Mus musculus, H22, 72 h
[4] = Dark toxicity against human Bel7402 cells assessed as cell viability after 53 hrs by CCK8 assay in absence of UVA-1 irradiation; assay type: cell-based, Bel-7402
[5] = Photocytotoxicity against human Bel7402 cells assessed as cell viability preincubated for 5 hrs followed by UVA-1 irradiation at 0.85 mW/cm'2 for 20 mins measured after 48 hrs by CCK8 assay; assay type: functional, cell-based; conditions: Bel-7402, light or radiation study
MCF7 = assay: Cytotoxicity against human MCF7 cells assessed as cell viability after 72 hrs by MTT assay; assay type: functional, cell-based; conditions: MCF7, 72 h
[6] = Dark toxicity against human PANC1 cells assessed as cell viability after 53 hrs by CCK8 assay in absence of UVA-1 irradiation; assay type: cell-based, PANC-1
PANC-1 [7] = assay: Antioxidant activity in human PANC1 cells assessed as reduction of H2O2-induced reactive oxygen stress level at 5 uM after 15 mins by DCFH-DA based fluorescence assay; assay type: functional, cell-based
Bel-7402 [8] = assay: Photocytotoxicity against human Bel7402 cells assessed as production of reactive oxygen stress at 5 uM preincubated for 5 hrs followed by UVA-1 irradiation at 0.85 mW/cm'2 for 20 mins measured for 10 mins by DCFH-DA based fluorescence microscopic analysis; assay type: functional, cell-based
[9] = Cytotoxicity against human PANC1 cells assessed as viable cells at 50 uM; assay type: functional; conditions: PANC-1, read-out: Activity
[10] = Cytotoxicity against human Bel7402 cells assessed as viable cells at 50 uM; assay type: functional; conditions: Bel-7402, read-out: Activity
PANC-1 [11] = assay: Induction of apoptosis in human PANC1 cells assessed as late apoptotic cells at 2 uM preincubated for 5 hrs followed by UVA-1 irradiation at 3 mW/cm'2 for 20 mins measured after 24 hrs by Annexin V-FITC/propidium iodide staining-based flow cytometric analysis (reference value: 1.3%); assay type: functional
[12] = Photocytotoxicity against human PANC1 cells assessed as cell viability preincubated for 5 hrs with cells followed by UVA-1 irradiation at 3.0 mW/cm'2 for 20 mins measured after 48 hrs by CCK8 assay; assay type: functional, cell-based; conditions: PANC-1, light or radiation study
Bel-7402 [13] = assay: Photocytotoxicity against human Bel7402 cells assessed as production of reactive oxygen stress at 5 uM preincubated for 5 hrs followed by UVA-1 irradiation at 0.85 mW/cm'2 for 20 mins measured for 4 to 10 mins by DCFH-DA based fluorescence microscopic analysis; assay type: functional, cell-based
PANC-1 [14] = assay: Photocytotoxicity against human PANC1 cells assessed as cell viability preincubated for 24 hrs with cells followed by UVA-1 irradiation for 20 mins at 3.0 mW/cm'2 measured after 48 hrs by CCK8 assay; assay type: functional, cell-based
PANC-1 [15] = assay: Photocytotoxicity against human PANC1 cells assessed as production of reactive oxygen stress at 5 uM preincubated for 5 hrs followed by UVA-1 irradiation at 3 mW/cm'2 for 20 mins by DCFH-DA based fluorescence microscopic analysis; assay type: functional, cell-based
[16] = Retention time of the compound at 5 uM by HPLC analysis; assay type: physicochemical
[17] = Photocytotoxicity against human PANC1 cells assessed as cell viability preincubated for 5 hrs followed by UVA-1 irradiation at 5.4 mW/cm'2 for 20 mins measured after 48 hrs by CCK8 assay; assay type: functional, cell-based; conditions: PANC-1, light or radiation study
Bel-7402 [18] = assay: Photocytotoxicity against human Bel7402 cells assessed as cell viability preincubated for 24 hrs with cells followed by UVA-1 irradiation for 20 mins at 3.0 mW/cm'2 measured after 48 hrs by CCK8 assay; assay type: functional, cell-based
[19] = Photocytotoxicity against human Bel7402 cells assessed as cell viability preincubated for 5 hrs with cells followed by UVA-1 irradiation at 3.0 mW/cm'2 for 20 mins measured after 48 hrs by CCK8 assay; assay type: functional, cell-based; conditions: Bel-7402, light or radiation study
[20] = Photocytotoxicity against human Bel7402 cells assessed as cell viability preincubated for 5 hrs followed by UVA-1 irradiation at 5.4 mW/cm'2 for 20 mins measured after 48 hrs by CCK8 assay; assay type: functional, cell-based; conditions: Bel-7402, light or radiation study
PANC-1 [21] = assay: Induction of apoptosis in human PANC1 cells assessed as necrotic cells at 2 uM preincubated for 5 hrs followed by UVA-1 irradiation at 3 mW/cm'2 for 20 mins measured after 24 hrs by Annexin V-FITC/propidium iodide staining-based flow cytometric analysis (reference value: 0.3%); assay type: functional
[22] = Induction of apoptosis in human PANC1 cells assessed as necrotic cells at 2 uM after 24 hrs by Annexin V-FITC/propidium iodide staining-based flow cytometric analysis in absence of UVA-1 irradiation (reference value: 0.5%); assay type: cell-based; conditions: panc-1, 24 h
[23] = Induction of apoptosis in human PANC1 cells assessed as late apoptotic cells at 2 uM after 24 hrs by Annexin V-FITC/propidium iodide staining-based flow cytometric analysis in absence of UVA-1 irradiation (reference value: 1.5%); assay type: cell-based; conditions: panc-1, 24 h
[24] = Photocytotoxicity against human Bel7402 cells assessed as cell viability at 10 uM preincubated for 5 hrs with cells followed by white light irradiation at 0.015 mW/cm'2 for 20 mins measured after 48 hrs by CCK8 assay relative to control; assay type: functional; conditions: Bel-7402, light or radiation study, read-out: Activity
Bel-7402 [25] = assay: Ratio of EC50 for human Bel7402 cells in presence of UVA-1 irradiation at 0.85 mW/cm'2 to EC50 for human Bel7402 cells in presence of UVA-1 irradiation at 3 mW/cm'2; assay type: functional
PANC-1 [26] = assay: Potency index, ratio of sunitinib EC50 to compound EC50 for human PANC1 cells in presence of UVA-1 irradiation at 3 mW/cm'2; assay type: functional
Bel-7402 [27] = assay: Potency index, ratio of sunitinib EC50 to compound EC50 for human Bel7402 cells in presence of UVA-1 irradiation at 3 mW/cm'2; assay type: functional
PANC-1 [28] = assay: Induction of apoptosis in human PANC1 cells assessed as viable cells at 2 uM preincubated for 5 hrs followed by UVA-1 irradiation at 3 mW/cm'2 for 20 mins measured after 24 hrs by Annexin V-FITC/propidium iodide staining-based flow cytometric analysis (reference value: 91%); assay type: functional; conditions: PANC-1, light or radiation study, read-out: Activity
[29] = Retention time of the compound in human PANC1 cells at 5 uM preincubated for 5 hrs followed by UVA-1 irradiation at 3 mW/cm'2 for 20 mins measured after 5 hrs by HPLC analysis; assay type: ADME, cell-based; conditions: panc-1, 5 µM
PANC-1 [30] = assay: Photocytotoxicity against human PANC1 cells assessed as cell viability pretreated with UVA-1 irradiation at 3.0 mW/cm'2 for 20 mins followed by cell addition measured after 48 hrs by CCK8 assay; assay type: functional, cell-based
PANC-1 [31] = assay: Induction of apoptosis in human PANC1 cells assessed as early apoptotic cells at 2 uM preincubated for 5 hrs followed by UVA-1 irradiation at 3 mW/cm'2 for 20 mins measured after 24 hrs by Annexin V-FITC/propidium iodide staining-based flow cytometric analysis (reference value: 7.4%); assay type: functional
PANC-1 [32] = assay: Photocytotoxicity against human PANC1 cells assessed as production of reactive oxygen stress at 5 uM preincubated for 5 hrs followed by UVA-1 irradiation at 0.85 mW/cm'2 for 20 mins measured for 4 to 10 mins by DCFH-DA based fluorescence microscopic analysis; assay type: functional, cell-based
[33] = Photocytotoxicity against human PANC1 cells assessed as cell viability preincubated for 5 hrs with cells followed by white light irradiation at 0.015 mW/cm'2 for 20 mins measured after 48 hrs by CCK8 assay; assay type: functional, cell-based; conditions: PANC-1, light or radiation study
[34] = Induction of apoptosis in human PANC1 cells assessed as viable cells at 2 uM after 24 hrs by Annexin V-FITC/propidium iodide staining-based flow cytometric analysis in absence of UVA-1 irradiation (reference value: 88.6%); assay type: cell-based, PANC-1; conditions: read-out: Activity
[35] = Dark cytotoxicity against human PANC1 cells assessed as production of reactive oxygen stress at 5 uM after 5 hrs by DCFH-DA based fluorescence microscopic analysis in absence of UVA-1 irradiation; assay type: cell-based; conditions: panc-1, 5 h
PANC-1 [36] = assay: Ratio of EC50 for human PANC1 cells in presence of UVA-1 irradiation at 0.85 mW/cm'2 to EC50 for human PANC1 cells in presence of UVA-1 irradiation at 3 mW/cm'2; assay type: functional
[37] = Induction of apoptosis in human PANC1 cells assessed as early apoptotic cells at 2 uM after 24 hrs by Annexin V-FITC/propidium iodide staining-based flow cytometric analysis in absence of UVA-1 irradiation (reference value: 9.4%); assay type: cell-based; conditions: panc-1, 24 h
PANC-1 [38] = assay: Photocytotoxicity against human PANC1 cells assessed as production of reactive oxygen stress at 5 uM preincubated for 5 hrs followed by UVA-1 irradiation at 3 mW/cm'2 for 20 mins measured after 5 hrs by HPLC analysis; assay type: functional, cell-based
[39] = Photocytotoxicity against human Bel7402 cells assessed as cell viability preincubated for 5 hrs with cells followed by white light irradiation at 0.015 mW/cm'2 for 20 mins measured after 48 hrs by CCK8 assay; assay type: functional, cell-based; conditions: Bel-7402, light or radiation study
[40] = Photocytotoxicity against human PANC1 cells assessed as cell viability at 10 uM preincubated for 5 hrs with cells followed by white light irradiation at 0.015 mW/cm'2 for 20 mins measured after 48 hrs by CCK8 assay relative to control; assay type: functional; conditions: PANC-1, light or radiation study, read-out: Activity
[41] = Retention time of the compound in human PANC1 cells at 5 uM after 5 hrs by HPLC analysis in absence of UVA-1 irradiation; assay type: ADME, cell-based; conditions: panc-1, 5 h
Bel-7402 [42] = assay: Photocytotoxicity against human Bel7402 cells assessed as cell viability pretreated with UVA-1 irradiation at 3.0 mW/cm'2 for 20 mins followed by cell addition measured after 48 hrs by CCK8 assay; assay type: functional, cell-based

Cc1cn([C@H]2C[C@H](n3cc(CNC(=O)CCCCCOc4ccc5c(c4)-c4nc6ccccc6nc4[C@@H]4C(C)(C)CCC[C@]54C)nn3)[C@@H](CO)O2)c(=O)[nH]c1=O
EC50 (HepG2): 6 µM | EC50 [1]: 9.8 µM | EC50 [2]: 6 µM | Activity (PANC-1 [3]): Active | EC50 (C6): 6 µM | EC50 (H22): 6 µM | EC50 at 53 h [4]: 10 µM | EC50 [5]: 4.2 µM | EC50 (MCF7): 6 µM | EC50 at 53 h [6]: ≥ 50 µM | Activity (PANC-1 [7]): Active | Activity (Bel-7402 [8]): Active

Nc1ccn([C@@H]2O[C@H](CO)[C@@H](O)C2(F)F)c(=O)n1 [GEMCITABINE]
viability at 50 µM [9]: < 20% | viability at 50 µM [10]: < 20%

Cc1cn([C@H]2C[C@H](n3cc(CNC(=O)CCCCCOc4ccc5c(c4)-c4nc6cc(Cl)c(Cl)cc6nc4[C@@H]4C(C)(C)CCC[C@]54C)nn3)[C@@H](CO)O2)c(=O)[nH]c1=O
Activity (PANC-1 [11]): 44.1% | EC50 [12]: 1.3 µM | Activity (Bel-7402 [13]): Active | Activity (PANC-1 [14]): Active | Activity (PANC-1 [15]): Active | EC50 [1]: 5.7 µM | Retention_time [16]: 68 min | EC50 [17]: 1.2 µM | Activity (Bel-7402 [18]): Active | EC50 [19]: 0.67 µM | EC50 [20]: 0.61 µM | Activity (PANC-1 [21]): 3.5% | Activity [22]: 0.4% | Activity [23]: 1.4% | viability at 10 µM [24]: < 40% | Ratio EC50 (Bel-7402 [25]): 3 | Ratio EC50 (PANC-1 [26]): 20 | Ratio EC50 (Bel-7402 [27]): 10 | viability at 2 µM (PANC-1 [28]): 40.5% | Retention_time [29]: 68 min | Activity (PANC-1 [30]): inactive | EC50 at 53 h [4]: > 20 µM | EC50 [5]: 2 µM | Activity (PANC-1 [31]): 11.9% | Activity (PANC-1 [32]): Active | EC50 [33]: > 10 µM | viability at 24 h, 2 µM [34]: 89.4% | EC50 at 53 h [6]: ≥ 50 µM | Activity [35]: Non-toxic | Ratio EC50 (PANC-1 [36]): 4 | Activity [37]: 8.8% | Activity (PANC-1 [38]): Active | EC50 [39]: > 10 µM | viability at 10 µM [40]: < 40% | Retention_time [41]: 68 min | Activity (Bel-7402 [42]): inactive
